Experimental data published in US11629192B2, “Methods and pharmaceutical compositions for the treatment of diseases mediated by the NRP-1/OBR complex signaling pathway” (INSERM (Institut National de la Sante et de la Recherche …, priority 2014, dated 2023).

Legend:
NRP-1/OBR complex = NRP-1/OBR complex detection by Duolink Proximity Ligation Assay in MDA-MB-231 cells; format: cell-based, human; settings: Leptin stimulation compared to serum starved and unstimulated cells
Text: FIG. 2A-E. NRP-1/OBR complex is dependent of the activity of Protein-kinase CK2: NRP-1 and OBR are both a substrate of the holoenzyme CK2: In vitro phosphorylation of the recombinant full length NRP-1 (A) and the length OBR (B) indicate that the CK2β subunit is indispensable for the CK2 activity. C. Detection of the NRP-1 and CK2β subunit interaction: By using the PLA technology, the in vitro data showing the implication of CK2β subunit in the phosphorylation of NRP-1 by CK2 are in part confirmed in MDA-MB231 cells by the detection of CK2β interaction with NRP-1 as indicated by the duolink (white dot). […] E. inhibition of the NRP-1/OBR by the simultaneous CK2α and CK2α′ expression silencing using siRNA that confirms the CK2 implication In the NRP-1/OBR complex formation and nuclear localization.
To confirm a direct association of NRP-1 and Leptin in breast cancer cell migration, we investigated the NRP-1 and OBR interaction by using proximity ligation assay technology (Duolink) in MDA-MB-231 and in T47D-NRP-1. Since OBR is a member of the class I cytokine receptor family, we asked the question if the formation of the complex NRP-1/OBR can or not be modulated by Leptin. This question was investigated endogenously in MDA-MB-231 or by transient transfection of T47D either by NRP-1 or by NRP-1/OBR or OBR alone. After 24 h of transfection, cells were serum starved for 16 h then stimulated with Leptin (10 nM). After 3 h, the stimulation was stopped by removing the medium, cells was first washed then fixed and NRP-1/OBR complex formation was analyzed by Duolink in situ Proximity Ligation Assay (PLA) and by confocal microscopy detection. Co-localization was analyzed using JACoP (ImageJ; National Institutes of Health, Bethesda, Md.) software. Co-localization between molecules was indicated by a positive Pearson coefficient (r). First, the expression of NRP-1 in transfected T47D was confirmed by RT-PCR. NRP-1 forms a complex with endogenous OBR as it is shown by the Duolink detection as red dot in cells transfected with pcDNA3-NRP-1. The Duolink signal increased in the T47D co-transfected with NRP-1 and OBR. The Duolink signals in T47D transfected with either the empty vector pcDNA3 or with the OBR expressing vector were similar. The same results are observed in MDA-MB-231. […] By using subcellular protein fractionation kit, NRP-1 and OBR localization in cytoplasmic (C), membrane (M), in the total nuclear extract (N) or in soluble nuclear (SN) and chromatin bound fractions (CB) was analyzed by western blotting either in total lysate or after coimmunoprecipitation. The purity of fraction was assessed by the detection of specific proteins of each fraction such as Hsp90 for the C fraction, SP1 and HDAC2 for the SN and CB fractions and specifically the Calreticulin for endoplasmic reticulum (ER) in order to detect any contamination by the ER membrane fraction in the nuclear fractions. As suspected, OBR was coimmunoprecipitated with NRP-1 in the cytoplasmic (C) and in the nuclear fraction (N) of MDA-MB-231 but not in T47D. As well as Phosphorylated OBR (P-OBR), NRP-1 was detected in cytoplasmic fraction and in nuclear fractions SN and CB of 16 h serum starved MDA-MB-231 and stimulated with 10 nM of Leptin during 3 h at 37° C. The P-OBR and NRP-1 coimmunoprecipitated in the nuclear fractions, increasing with Leptin stimulation as observed by confocal microscopy.
As attempted, NRP-1/OBR complex was detected by confocal microscopy after by Duolink in situ Proximity Ligation Assay (PLA) in MDA-MB-231 stimulated with Leptin (10 nM). This detection was also observed in MDA-MB-231-shGFP but very less in MDA-MB-231-shNRP-1 confirming NRP-1 association with OBR.

[1] = tested on: T47D-NRP-1-RFP xenografts; assay: Transcriptome of T47D-NRP-1-RFP xenografts treated or not with Leptin; format: in vivo, Nude mice; settings: Leptin treated vs not treated T47D-NRP-1-RFP xenografts
Text: Although the Chip-Seq was realized on MDA-MB-231, we opted to realize a transcriptome of T47D overexpressing NRP-1-RFP xenografts compared to T47D-wt and T47D-RFP treated or not with Leptin regarding to the lymph node infiltration induced by the NRP-1 overexpression and its increase by Leptin treatment. To determine any direct association of NRP-1 in gene expression, we realize first a global analysis of transcriptome of T47D-NRP-1 xenografts treated and not treated with Leptin (n=8) compared to T47D-wt and T47D-RFP xenografts treated and not treated with Leptin (n=8). […] The analysis of gene expression in Leptin treated T47D-NRP-1-RFP compared to no treated xenografts, highlighted 66 genes with 31 genes enriched in the Chip-Seq of MDA-MB-231 and that were not detected in T47D-wt and T47D-RFP treated or not with Leptin. Only 4 genes enriched in the Chip-Seq contained peaks associated to transcription factor binding site such as FUS (fused in sarcoma, fold increase 1.79; p=0.045) for Pol2 and C12orf45 (chromosome 12 open reading frame, fold increase 1.29; p=0.03) for CTCF. […] Since Plasminogen Activator Inhibitor 1 (PAI.1) related to SERPINE1 gene has been associated to breast cancer invasion and metastasis, we evaluated PAI.1 expression by immunostaining in T47D-NRP-1-RFP xenografts compared to T47D-wt and T47D-RFP.

In the case of “Leptin: small non glycosylated protein, ligand of OBR”, the “direct interaction between NRP-1 and OBR (Duolink PLA)” value (NRP-1/OBR complex) is reported as “takes place under Leptin stimulation”, the “C12orf45 gene expression, fold increase” value ([1]; p=0.03) is reported as 1.29 fold and the “FUS gene expression, fold increase” value ([1]; p=0.045) is reported as 1.79 fold.
